Data as given in patent publication US20130137701A1, “COMBINATION” (priority 2010, published 2013).
pIC50: −log10 of the molar value. Like-named read-outs stand apart in the source and are kept apart here. One block for each compound: values may come before it.

How the values were obtained:
BT-474 = assay: Cell growth inhibition assay (Cell Titer Glo); assay type: cell-based, Human; details: BT-474, Breast, HER2+, PIK3CA K111N, 3 days, read-out: Single Agent (IC50)
Procedure: (§1) All cells were cultured without lapatinib for a minimum of 72 hours prior to cell plating. Cells were assayed in a 96-well tissue culture plate (NUNC 136102) of RPMI medium containing 10
(§2) % FBS for all cells at 2,000 cells per well except KPL4, which were plated in DMEM containing 5% FBS at 500 cells per well. […] Cells were incubated in the presence of compounds for 3 days. ATP levels were determined by adding Cell Titer Glo® (Promega) according to the manufacturer's protocol. Briefly, Cell Titer Glo® was added each plate, incubated for 20 minutes then luminescent signal was read on the SpectraMax L plate reader with a 0.5 sec integration time.
(§3) Inhibition of cell growth was estimated after treatment with compound or combination of compounds for three days and comparing the signal to cells treated with vehicle (DMSO). Cell growth was calculated relative to vehicle (DMSO) treated control wells. Concentration of compound that inhibits 50% of control cell growth (IC50) was interpolated using nonlinear regression with the equation, y=(A+(B−A)/(1+(C/x)̂D)))), where A is the minimum response (ymin), B is the maximum response (ymax), C is the inflection point of the curve (EC50) and D is the Hill coefficient. […]

HCC1937 = assay: Cell growth inhibition assay (Cell Titer Glo); assay type: cell-based, Human; details: HCC1937, Breast, HER−, PIK3CA WT; 3 days; read-out: Single Agent (IC50)
Procedure: as §1, §2, §3

HCC202 = assay: Cell growth inhibition assay (Cell Titer Glo); assay type: cell-based, Human; details: HCC202, Breast, HER2+, PIK3CA E545K, 3 days; for pIC50: read-out: Single Agent (IC50)
Procedure: as §1, §2, §3

MDA-MB-175-VII = assay: Cell growth inhibition assay (Cell Titer Glo); assay type: cell-based, Human; details: Breast, HER−, PIK3CA WT, 3 days, read-out: Single Agent (IC50)
Procedure: as §1, §2, §3

MDA-MB-361 = assay: Cell growth inhibition assay (Cell Titer Glo); assay type: cell-based, Human; details: MDA-MB-361 (resistant line), Breast, HER2+, PIK3CA E545K, 3 days; for pIC50: Homo sapiens, 72 h, read-out: Single Agent (IC50)
Procedure: as §1, §2, §3

MDA-MB-453 = assay: Cell growth inhibition assay (Cell Titer Glo); assay type: cell-based, Human; details: MDA-MB-453, Breast, HER2+, PIK3CA H1047R, 3 days; for pIC50: Homo sapiens, 72 h, read-out: Single Agent (IC50)
Procedure: as §1, §2, §3

SK-BR-3 = assay: Cell growth inhibition assay (Cell Titer Glo); assay type: cell-based, Human; details: SK-BR-3, Breast, HER2+, PIK3CA WT, 3 days, read-out: Single Agent (IC50)
Procedure: as §1, §2, §3

UACC893 = assay: Cell growth inhibition assay (Cell Titer Glo); assay type: cell-based, Human; details: UACC893, Breast, HER2+, PIK3CA H1047R, 3 days, read-out: Single Agent (IC50)
Procedure: as §1, §2, §3

BT-474-J4 = assay: Cell growth inhibition assay (Cell Titer Glo); assay type: cell-based; details: Homo sapiens, 72 h, BT-474-J4 (resistant line), Breast, HER2+, PIK3CA K111N; 3 days; read-out: Single Agent (IC50)
Procedure: (§4) JIMT-1 is a line derived from a patient clinically resistant to trastuzumab (Herceptin®). SK-BR-3-W13 is a single cell clone isolated by a cloning cylinder after a single treatment of SK-BR-3 cells with 0.5 μM lapatinib. BT-474-J4 is a single cell clone derived from a culture of BT-474 cells that were selected to grow in lapatinib to a concentration of 3 μM.
as §1, §2, §3

SK-BR-3-W13 = assay: Cell growth inhibition assay (Cell Titer Glo); assay type: cell-based; details: Homo sapiens, 72 h; SK-BR-3-W13 (resistant line), Breast, HER2+, PIK3CA WT; 3 days; read-out: Single Agent (IC50)
Procedure: as §4, §1, §2, §3

JIMT-1 = assay: Cell growth inhibition assay (Cell Titer Glo); assay type: cell-based, Human; details: JIMT-1 (resistant line), Breast, HER2+, PIK3CA WT, 3 days, read-out: Single Agent (IC50)
Procedure: as §4, §1, §2, §3

[1] = test system: caspase 3/7 activity in BT474 cells; assay: Cell apoptosis assay, caspase-3/7 activation (Caspase Glo 3/7); assay type: cell-based, Human; details: 24 h post treatment
Procedure: as §4
(§5) For investigation of the induction of apoptosis, cells were plated at 5,000 cells per well in a 96-well tissue culture plate and allowed to attach for approximately 24 hours. Cells were then treated with compounds as described above. 24 hours after compound treatment, the levels of active caspase 3 and caspase 7 were determined with the Caspase Glo™ 3/7 (Promega, cat G8093) according to the instructions provided by the manufacturer. 48 hours after treatment with compound, levels of apoptosis were estimated using the Roche Cell Death ELISA (Cat. No. 11 774 425 001) following the instructions provided by the manufacturer.

[2] = test system: caspase 3/7 activity in HCC1419 cells; assay: as above; assay type: cell-based, Human; details: 24 h post treatment
Procedure: as §4, §5

[3] = test system: caspase 3/7 activity in UACC893 cells; assay: as above; assay type: cell-based, Human; details: 24 h post treatment
Procedure: as §4, §5

CHL-1 = assay: Cell growth inhibition assay (Cell Titer Glo); assay type: cell-based, Human; details: CHL-1, Melanoma, HER−, PIK3CA WT, 3 days, read-out: Single Agent (IC50)
Procedure: as §1, §2, §3

KPL4 = assay: Cell growth inhibition assay (Cell Titer Glo); assay type: cell-based, Human; details: KPL4, Breast, HER2+, PIK3CA H1047R, 3 days, read-out: Single Agent (IC50)
Procedure: as §1, §2, §3

ZR-75-1 = assay: Cell growth inhibition assay (Cell Titer Glo); assay type: cell-based, Human; details: ZR-75-1, Breast, HER−, PIK3CA WT, 3 days, read-out: Single Agent (IC50)
Procedure: as §1, §2, §3

- pIC50 (BT-474; ditosylate monohydrate): 6.62
- pIC50 (BT-474; Homo sapiens, BT-474, 72 h): > 6.70
- pIC50 (HCC1937): < 6.00
- Single Agent (IC50, μM) (HCC202): less sensitive
- pIC50 (HCC202; Homo sapiens, HCC202, 72 h): 5.33
- pIC50 (MDA-MB-175-VII; ditosylate monohydrate): 6.97
- pIC50 (MDA-MB-175-VII; Homo sapiens, 72 h): > 6.70
- pIC50 (MDA-MB-361): < 5.00
- Single Agent (IC50, μM) (MDA-MB-361): less sensitive
- pIC50 (MDA-MB-453): 5.61
- Single Agent (IC50, μM) (MDA-MB-453): less sensitive
- pIC50 (SK-BR-3; Homo sapiens, SK-BR-3, 72 h): > 6.70
- pIC50 (SK-BR-3; ditosylate monohydrate): 6.51
- pIC50 (BT-474-J4): 5.45
- pIC50 (SK-BR-3-W13): 5.15
SMILES: CS(=O)(=O)CCNCc1ccc(-c2ccc3ncnc(Nc4ccc(OCc5cccc(F)c5)c(Cl)c4)c3c2)o1 [Compound A, N-{3-Chloro-4-[(3-fluorobenzyl)oxy]phenyl}-6-[5-({[2-(methanesulphonyl)ethyl]amino}methyl)-2-furyl]-4-quinazolinamine ditosylate monohydrate]
- pIC50 (UACC893; Homo sapiens, UACC-893, 72 h): > 6.00
- pIC50 (UACC893; ditosylate monohydrate): 5.97
- pIC50 (JIMT-1; Homo sapiens, JIMT-1, 72 h): 5.02
- caspase 3/7 activity [1]: increased caspase 3/7 activity
- caspase 3/7 activity [2]: slight increase in caspase 3/7 activity
- caspase 3/7 activity [3]: increased caspase 3/7 activity

- pIC50 (BT-474): 7.55
- pIC50 (BT-474; Homo sapiens, BT-474, 72 h): > 7.30
- pIC50 (HCC202): 6.69
- pIC50 (HCC202; Homo sapiens, HCC202, 72 h): 6.70
- pIC50 (MDA-MB-361): 8.05
- pIC50 (MDA-MB-453): 7.82
- pIC50 (SK-BR-3-W13): 6.78
SMILES: COc1ncc(-c2ccc3nccc(-c4ccnnc4)c3c2)cc1NS(=O)(=O)c1ccc(F)cc1F [Compound B, 2,4-difluoro-N-{2-(methyloxy)-5-[4-(4-pyridazinyl)-6-quinolinyl]-3-pyridinyl}benzenesulfonamide]
- pIC50 (CHL-1): 7.42
- pIC50 (CHL-1; Homo sapiens, CHL-1, 72 h): > 7.40
- pIC50 (KPL4; Homo sapiens, KPL4, 72 h): > 8.30
- pIC50 (KPL4): 8.52
- pIC50 (UACC893; Homo sapiens, UACC-893, 72 h): > 8.30
- pIC50 (UACC893): 8.30
- pIC50 (ZR-75-1; Homo sapiens, ZR-75-1, 72 h): 5.89 to 8.00
- pIC50 (ZR-75-1): 7.92
- pIC50 (JIMT-1; Homo sapiens, JIMT-1, 72 h): > 7.52
- pIC50 (JIMT-1): 7.55
- caspase 3/7 activity [1]: increased caspase 3/7 activity
- caspase 3/7 activity [2]: slight increase in caspase 3/7 activity
- caspase 3/7 activity [3]: increased caspase 3/7 activity
